By IC50 is commonly meant the midpoint of a concentration-inhibition curve.

Read-outs that look alike come from different tables or passages of the source.

The values below come from patent US9221781B2, “Synthesis of polyhydroxy chromenone compounds and their anti-tumor effects” (BEIJING SHENOGEN PHARMA GROUP LTD., priority 2012, dated 2015).

For one test, the system named is K562 cells. As to the kind of experiment: Viability of chronic leukemia cells K562 by CellTiter-Glo Luminescent Assay in vitro. It counts as cell-based, human. The following applies: 72 hours, read-out: Inhibition of viability of cells in vitro IC50, K562 cells. How it is done:
A: Detection of Viability of Chronic Leukemia Cells K562 by CellTiter-Glo® Luminescent Assay In Vitro
The chronic leukemia cells K562 from ATCC were maintained in IMDM and 10% fetal calf serum at 37° C. in a 5% CO2 atmosphere. The cells were subseeded in a 96-well culture plate at a cencentration of 6×10^3 cells/well.K562 cells were treated with a test compound dissolved in DMSO at the concentration of 0, 0.3 μM, 0.5 μM, 1 μM, 2 μM, 3 μM, 5 μM, 10 μM, 20 μM, 30 μM, 50 μM and 100 μM for 72 hours. Treated cells were examined by CellTiter-Glo® Luminescent Cell Viability Assay Kit (Promega), and luminescence were recorded with Envision.
On the technique in general: Cellular ATP, detected with luciferase, serves as a proxy for viable cell number.

For a further test, the system named is Daudi cells. As to the kind of experiment: Inhibition of human B lymphoma Daudi cells by CellTiter-Glo Luminescent Assay in vitro. It counts as cell-based. The following applies: 72 hours, read-out: Inhibition of viability of cells in vitro IC50, Daudi cells. How it is done:
A: Inhibition of Human B Lymphoma Daudi Cells by CellTiter-Glo® Luminescent Assay In Vitro
The Human B Lymphoma Daudi cells from ATCC were maintained in IMDM and 10% fetal calf serum at 37° C. in a 5% CO2 atmosphere. The cells were subseeded in a 96-well culture plate at a concentration of 6×10^3 cells/well. Human B Lymphoma Daudi cells were treated with a test compound dissolved in DMSO at the concentration of 0, 0.3 μM, 0.5 μM, 1 μM, 2 μM, 3 μM, 10 μM, 20 μM, 30 μM, 50 μM and 100 μM for 72 hours. Treated cells were examined by CeliTiter-Glo® Luminescent Cell Viability Assay Kit (Promega), and luminescence were recorded with Envision.

The subject of another test is HL-60 cells. As to the kind of experiment: Inhibition of growth of acute myeloblastic leukemia HL-60 cells by MTT method. The following applies: 72 hours; for inhibition at 1 µM: Homo sapiens, 10^−6M, read-out: The inhibition percentage of cell proliferation by the compounds with a concentration of 10^−6M, HL-60 cells. It counts as cell-based, human. As for the experimental part: A: Inhibition of Growth of Acute Myeloblastic Leukemia HL-60 Cells by the Compounds Detected by MTT Method
The acute myeloblastic leukemia HL-60 cells from ATCC were maintained in IMDM and 10% fetal calf serum at 37° C. in a 5% CO2 atmosphere. The cells were subseeded in a 96-well culture plate at a concentration of 6×10^3 cells/well. HL-60 cells were treated with a test compound dissolved in DMSO at the concentration of 0, 10^−4M, 10^−5M, 10^−6M, 10^−7M, 10^−8M for 72 hours. OD value was tested by MTT method, and the inhibition ratio was calculated.
(In general: Formazan colour is commonly taken as a measure of viable cells.)

A further test relates to Molt-4 cells. The test is described as follows: Inhibition of growth of acute lymphoblastic leukemia Molt-4 cells by MTT method. It counts as cell-based. The following applies: 72 hours; for inhibition at 1 µM: Homo sapiens, 10^−6M, read-out: The inhibition percentage of cell proliferation by the compounds with a concentration of 10^−6M, Molt-4 cells. As for the experimental part: B: Inhibition of Growth of Acute Lymphoblastic Leukemia Molt-4 Cells by the Compounds Detected by MTT Method
The acute lymphoblastic leukemia Molt-4 cells from ATCC were maintained in RPMI-1640 and 10% fetal calf serum at 37° C. in a 5% CO2 atmosphere. The cells were subseeded in a 96-well culture plate at a concentration of 6×10^3 cells/well and maintained RPMI-1640 and 10% fetal calf serum at 37° C. 5%CO2 atmosphere. Molt-4 cells were treated with a test compound dissolved in DMSO at the concentration of 0, 10^−4M, 10^−5M, 10^−6M, 10^−7M, 10^−8M for 72 hours. OD value was tested by MTT method, and the inhibition ratio was calculated.

In a further test the test system is MDA-MB-231 cells. As to the kind of experiment: CellTiter-Glo Luminescent Cell Viability Assay on ER-negative breast cancer MDA-MB-231 cells in vitro. It counts as cell-based. The following applies: Homo sapiens, 72 hours, read-out: Inhibition of viability of breast cancer cells IC50, MDA-MB-231 cells. How it is done:
A: CellTiter-Glo® Luminescent Cell Viability Assay on ER-Negative Breast Cancer MDA-MB-231 In Vitro:
MDA-MB-231 cells were maintained at 37° C., in a 5% CO2 atmosphere in DMEM and 10% fetal calf serum. The cells were placed at a density of 6×10^3 cells per well in a 96-well plate. MDA-MB-231 cells were treated with a test compound dissolved in DMSO at the concentration of 0, 0.3 μM, 0.5 μM, 1 μM, 2 μM, 3 μM, 5 μM, 10 μM, 20 μM, 30 μM, 50 μM and 100 μM for 72 hours. Treated cells were examined under CellTiter-Glo® Luminescent Cell Viability Assay Kit (Promega), and luminescence were recorded with Envision.

A further test concerns MCF7 cells. As to the kind of experiment: CellTiter-Glo Luminescent Cell Viability Assay on ER-positive breast cancer MCF-7 cells in vitro. The following applies: Homo sapiens, 72 hours, read-out: Inhibition of viability of breast cancer cells IC50, MCF7 cells. It counts as cell-based. How it is done:
B: CellTiter-Glo® Luminescent Cell Viability Assay on ER-Positive Breast Cancer MCF-7 Cells In Vitro:
MCF7 cells from ATCC were maintained in an Dulbecco's modified Eagle medium (DMEM), and 10% fetal calf serum at 37 in a 5% CO2 atmosphere. Cells were placed at a density of 6×10^3 cells per well in a 96-well plate. MCF 7 cells were treated with a test compound dissolved in DMSO at the concentration of 0, 0.3 μM, 0.5 μM, 1 μM, 2 μM, 3 μM, 5 μM, 10 μM, 20 μM, 30 μM, 50 μM and 100 μM for 72 hours. Treated cells were examined through CellTiter-Glo® Luminescent Cell Viability Assay Kit (Promega), and luminescence were recorded with Envision.

The subject of another test is BEL-7402 cells. As to the kind of experiment: Inhibition of liver cancer cell BEL-7402 in vitro by SRB. The following applies: Homo sapiens, 10^−6M, 72 hours, read-out: The inhibition percentage of cell proliferation by the compounds with a concentration of 10^−6M, BEL-7402 cells. It counts as cell-based. How it is done:
A: Inhibition of Liver Cancer Cell BEL-7402 In Vitro by the Compounds Detected by SRB
The liver cancer BEL-7402 cells from ATCC were maintained in DMDM, 10% NCS and 50 μg/ml KANA at 37° C. in a 5% CO2 atmosphere, and were subseeded in a 96-well culture plate at a concentration of 6×10^3 cells/well. BEL-7402 cells were treated with a test compound dissolved in DMSO at the concentration of 0, 10^−4M, 10^−5M, 10^−6M, 10^−7M, 10^−8M for 72 hours. OD value was tested by SRB method, and the inhibition percentage was calculated.

Regarding “2-(4-fluorophenyl)-3-methoxy-5,7-dihydroxy-8-(3-methyl-2-buten-1-yl)-4H-chromen-4-one [Compound 11]”, the IC50 in the test on K562 cells and in the test with Daudi cells was more than 100 µM throughout. In the test on HL-60 cells, the “The inhibition percentage of cell proliferation by the compounds with a concentration of 10^−6M, HL-60 cells” value is “NA (NA means no activity, and inhibition percentage by the compound with a concentration of 10^−6M was below 10%.)”. In the test with Molt-4 cells, the “The inhibition percentage of cell proliferation by the compounds with a concentration of 10^−6M, Molt-4 cells” value was “NA (NA means no activity, and inhibition percentage by the compound with a concentration of 10^−6M was below 10%.)”.
As to `CC(C)=CCc1c(O)cc(O)c2c(=O)c(O)c(-c3ccc(F)cc3)oc12` [Compound 2, 2-(4-fluorophenyl)-3,5,7-trihydroxy-8-(3-methyl-2-buten-1-yl)-4H-chromen-4-one], the IC50 in the test with MDA-MB-231 cells is more than 100 µM; with MCF7 cells, 3.17 µM; in the test on K562 cells (Homo sapiens), 6.14 µM; with Daudi cells (Homo sapiens), 9.23 µM. Besides, the figures for the inhibition at 1 µM in the test on Molt-4 cells and in the test on BEL-7402 cells were less than 10% and 21.8%, respectively.
In the case of `CC(C)=CCc1c(O)cc(O)c2c(=O)c(O)c(-c3ccc(Cl)c(F)c3)oc12` [Compound 3, 2-(3-fluoro-4-chlorophenyl)-3,5,7-trihydroxy-8-(3-methyl-2-buten-1-yl)-4H-chromen-4-one], the IC50 is 2.87 µM in the test with MDA-MB-231 cells, 8.6 µM in the test with MCF7 cells, 1.85 µM with K562 cells (Homo sapiens) and 2.91 µM with Daudi cells (Homo sapiens). Further, the inhibition at 1 µM in the test with HL-60 cells worked out at 28.5%; in the test with Molt-4 cells it was 14.4%; in the test on BEL-7402 cells, 28.6%.
For `CC(C)=CCc1c(O)cc(O)c2c(=O)c(O)c(-c3ccc(Cl)cc3)oc12` [Compound 4, 2-(4-chlorophenyl)-3,5,7-trihydroxy-8-(3-methyl-2-buten-1-yl)-4H-chromen-4-one], the IC50 in the test with MDA-MB-231 cells was 4.33 µM; with MCF7 cells it was 16 µM; in the test on K562 cells (Homo sapiens), 0.974 µM; in the test on Daudi cells (Homo sapiens) it was 2.64 µM. Also, the inhibition at 1 µM in the test on HL-60 cells stood at 0.974%; in the test with Molt-4 cells, 14.7%; in the test with BEL-7402 cells, 46.4%.
Take `CC(C)=CCc1c(O)cc(O)c2c(=O)c(O)c(-c3ccc(OC(F)(F)F)cc3)oc12` [Compound 5, 2-(4-trifluoromethoxyphenyl)-3,5,7-trihydroxy-8-(3-methyl-2-buten-1-yl)-4H-chromen-4-one]: the IC50 in the test with MDA-MB-231 cells turned out to be 4.48 µM; in the test on MCF7 cells, 6.85 µM; with K562 cells (Homo sapiens), 1.48 µM; in the test with Daudi cells (Homo sapiens), 1.49 µM. The inhibition at 1 µM in the test on HL-60 cells is 59.8%; with Molt-4 cells it was 69.4%; in the test with BEL-7402 cells it was 15.6%.
With `CC(C)=CCc1c(O)cc(O)c2c(=O)c(O)c(-c3ccc(Cl)c(Cl)c3)oc12` [Compound 6, 2-(3,4-dichlorophenyl)-3,5,7-trihydroxy-8-(3-methyl-2-buten-1-yl)-4H-chromen-4-one], the IC50 amounted to 1.88 µM in the test with MDA-MB-231 cells, 6.85 µM with MCF7 cells, 0.935 µM with K562 cells (Homo sapiens) and 1.98 µM with Daudi cells (Homo sapiens). Moreover, the results for the inhibition at 1 µM in the test on HL-60 cells, in the test on Molt-4 cells and with BEL-7402 cells were 61.9%, 67.4% and 14.9%, respectively.
Turning to `CC(C)=CCc1c(O)cc(O)c2c(=O)c(O)c(-c3ccc(Cl)c(C(F)(F)F)c3)oc12` [Compound 7, 2-(3-trifluoromethyl-4-chlorophenyl)-3,5,7-trihydroxy-8-(3-methyl-2-buten-1-yl)-4H-chromen-4-one], the IC50 with MDA-MB-231 cells came to 9.3 µM; with MCF7 cells, 7.54 µM; with K562 cells (Homo sapiens), 6.14 µM; in the test with Daudi cells (Homo sapiens), 4.07 µM. The results for the inhibition at 1 µM in the test on HL-60 cells, in the test on Molt-4 cells and with BEL-7402 cells were less than 10%, 57% and 19.8%, respectively.
Regarding `COc1c(-c2ccc(C(F)(F)F)cc2)oc2c(CC=C(C)C)c(O)cc(O)c2c1=O` [Compound 9, 2-(4-trifluoromethylphenyl)-3-methoxy-5,7-dihydroxy-8-(3-methyl-2-buten-1-yl)-4H-chromen-4-one], the IC50 in the test on MDA-MB-231 cells and in the test on MCF7 cells was more than 100 µM in each case. In addition, the inhibition at 1 µM is less than 10% with HL-60 cells, less than 10% in the test on Molt-4 cells and 11.7% with BEL-7402 cells.
Take `COc1c(-c2ccc(F)c(F)c2)oc2c(CC=C(C)C)c(O)cc(O)c2c1=O` [Compound 10, 2-(3,4-difluorophenyl)-3-methoxy-5,7-dihydroxy-8-(3-methyl-2-buten-1-yl)-4H-chromen-4-one]: the 50% inhibitory concentration (IC50) in the test with MDA-MB-231 cells was more than 100 µM; with MCF7 cells it was 31.5 µM; in the test on K562 cells (Homo sapiens) it was more than 100 µM; in the test with Daudi cells (Homo sapiens), 21.8 µM. In addition, in the test with BEL-7402 cells, the inhibition at 1 µM was determined as 17.4%.
In the case of `COc1cccc2c1C(=O)c1c(O)c3c(c(O)c1C2=O)C[C@@](O)(C(=O)CO)C[C@@H]3O[C@H]1C[C@H](N)[C@H](O)[C@H](C)O1` [Doxorubicin, reference compound], the inhibition at 1 µM in the test with HL-60 cells was found to be 79%; with Molt-4 cells it was 90.1%; in the test on BEL-7402 cells it was 55.2%.
On to `Nc1ccn([C@@H]2O[C@H](CO)[C@@H](O)[C@@H]2O)c(=O)n1` [cytarabinen, reference compound], for which the IC50 in the test on Daudi cells worked out at 10 µM.
